# Assay results as given in PubChem BioAssay (NCI).
#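 Five compound concentrations were applied to cells in 96-well plates for 48 hours; endpoints were derived by simple linear interpolation of the resulting dose-response curve. GI50 marks 50% less growth. TGI is the concentration that stops growth completely.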
# Tests used:
# Assay in all cases: inhibition of tumour cell growth, NCI panel, 48 h
# [1] = test system: SNB-75 CNS
# [2] = test system: HS 578T breast
# [3] = test system: M14 melanoma
# [4] = test system: OVCAR-3 ovarian
# [5] = test system: BT-549 breast
# [6] = test system: SK-MEL-28 melanoma
# [7] = test system: MDA-MB-435
# [8] = test system: IGROV1 ovarian
# [9] = test system: OVCAR-8 ovarian
# [10] = test system: U251 CNS
# [11] = test system: RXF 393 renal
# [12] = test system: SR leukemia
# [13] = test system: KM12 colon
# [14] = test system: NCI-H226 lung
# [15] = test system: A549 NSCLC
# [16] = test system: A498 renal
# [17] = test system: DU-145 prostate
# [18] = test system: SF-539 CNS
# [19] = test system: MDA-MB-231 breast
# [20] = test system: SW-620 colon
# [21] = test system: HOP-92 NSCLC
# [22] = test system: HCC-2998 colon
# [23] = test system: EKVX NSCLC
# [24] = test system: 786-0 renal
# [25] = test system: T-47D breast
# [26] = test system: MOLT-4 leukemia
# [27] = test system: SK-OV-3 ovarian
# [28] = test system: SNB-19 CNS
# [29] = test system: K-562 leukemia
# [30] = test system: MALME-3M melanoma
# [31] = test system: HCT-116 colon
# [32] = test system: LOX IMVI melanoma
# [33] = test system: HL-60(TB) leukemia
# [34] = test system: OVCAR-4 ovarian
# [35] = test system: OVCAR-5 ovarian
# [36] = test system: SK-MEL-2 melanoma
# [37] = test system: UO-31 renal
# [38] = test system: UACC-257 melanoma
# [39] = test system: ACHN renal
# [40] = test system: TK-10 renal
# [41] = test system: HCT-15 colon
# [42] = test system: UACC-62 melanoma
# [43] = test system: PC-3 prostate
# [44] = test system: COLO 205 colon
# [45] = test system: SF-268 CNS
# [46] = test system: SF-295 CNS
# [47] = test system: NCI/ADR-RES ovarian
# [48] = test system: SN12C renal
# [49] = test system: HT29 colon
# [50] = test system: SK-MEL-5 melanoma
# [51] = test system: RPMI-8226 leukemia
# [52] = test system: NCI-H460 lung
# [53] = test system: MCF7 breast
# [54] = test system: NCI-H23 lung
# [55] = test system: NCI-H522 lung
# [56] = test system: CCRF-CEM leukemia
# [57] = test system: CAKI-1 renal
# [58] = test system: HOP-62 NSCLC
smiles,measurement,setting,value
COc1cc(C2CC(c3ccc(Nc4nc(NCCO)nc(NCCO)n4)cc3)=NN2c2cc(Cl)cc(Cl)c2)cc(OC)c1OC (stereo unspecified),GI50,[1],1.05 µM
same,TGI,[1],3.05 µM
same,GI50,[2],0.644 µM
same,TGI,[2],3.34 µM
same,GI50,[3],1.58 µM
same,TGI,[3],3.24 µM
same,GI50,[4],1.62 µM
same,TGI,[4],3.13 µM
same,GI50,[5],1.67 µM
same,TGI,[5],4.54 µM
same,GI50,[6],1.53 µM
same,TGI,[6],3.14 µM
same,GI50,[7],1.55 µM
same,TGI,[7],3.24 µM
same,GI50,[8],2.02 µM
same,TGI,[8],4.8 µM
same,GI50,[9],2.01 µM
same,TGI,[9],5.86 µM
same,GI50,[10],1.25 µM
same,TGI,[10],2.81 µM
same,GI50,[11],0.568 µM
same,TGI,[11],2.34 µM
same,GI50,[12],1.29 µM
same,TGI,[12],4.11 µM
same,GI50,[13],1.53 µM
same,TGI,[13],3.21 µM
same,GI50,[14],3.85 µM
same,TGI,[14],16.8 µM
same,GI50,[15],1.38 µM
same,TGI,[15],3.22 µM
same,GI50,[16],16.6 µM
same,TGI,[16],30.2 µM
same,GI50,[17],1.84 µM
same,TGI,[17],4.11 µM
same,GI50,[18],1.2 µM
same,TGI,[18],2.57 µM
same,GI50,[19],1.45 µM
same,TGI,[19],3.44 µM
same,GI50,[20],1.8 µM
same,TGI,[20],3.79 µM
same,GI50,[21],1.46 µM
same,TGI,[21],6.73 µM
same,GI50,[22],2.14 µM
same,TGI,[22],4.84 µM
same,GI50,[23],2.03 µM
same,TGI,[23],6.17 µM
same,GI50,[24],1.29 µM
same,TGI,[24],2.59 µM
same,GI50,[25],1.18 µM
same,TGI,[25],12.1 µM
same,GI50,[26],1 µM
same,TGI,[26],4.12 µM
same,GI50,[27],11.1 µM
same,TGI,[27],23.1 µM
same,GI50,[28],1.72 µM
same,TGI,[28],4.12 µM
same,GI50,[29],1.47 µM
same,TGI,[29],3.58 µM
same,GI50,[30],1.96 µM
same,TGI,[30],3.84 µM
same,GI50,[31],1.28 µM
same,TGI,[31],2.67 µM
same,GI50,[32],1.6 µM
same,TGI,[32],3.1 µM
same,GI50,[33],1.5 µM
same,TGI,[33],3.43 µM
same,GI50,[34],1.63 µM
same,TGI,[34],3.66 µM
same,GI50,[35],2.15 µM
same,TGI,[35],7.56 µM
same,GI50,[36],15.5 µM
same,TGI,[36],28.9 µM
same,GI50,[37],2.08 µM
same,TGI,[37],8.09 µM
same,GI50,[38],1.86 µM
same,TGI,[38],3.87 µM
same,GI50,[39],2.58 µM
same,TGI,[39],13.1 µM
same,GI50,[40],2.01 µM
same,TGI,[40],4.45 µM
same,GI50,[41],1.5 µM
same,TGI,[41],3.13 µM
same,GI50,[42],1.58 µM
same,TGI,[42],3.04 µM
same,GI50,[43],1.04 µM
same,TGI,[43],3.61 µM
same,GI50,[44],2.7 µM
same,TGI,[44],9.29 µM
same,GI50,[45],1.52 µM
same,TGI,[45],4.09 µM
same,GI50,[46],1.16 µM
same,TGI,[46],2.87 µM
same,GI50,[47],3.37 µM
same,TGI,[47],12.8 µM
same,GI50,[48],1.75 µM
same,TGI,[48],3.82 µM
same,GI50,[49],1.52 µM
same,TGI,[49],3.25 µM
same,GI50,[50],1.7 µM
same,TGI,[50],3.34 µM
same,GI50,[51],1.15 µM
same,TGI,[51],6.28 µM
same,GI50,[52],1.77 µM
same,TGI,[52],3.8 µM
same,GI50,[53],1.26 µM
same,TGI,[53],2.94 µM
same,GI50,[54],2.02 µM
same,TGI,[54],4.97 µM
same,GI50,[55],2.25 µM
same,TGI,[55],9.21 µM
same,GI50,[56],2.53 µM
same,TGI,[56],10.7 µM
O=c1[nH]c(C2CCCN2)nc2c1oc1ccc(Cl)cc12 (stereo unspecified),GI50,[1],17.9 µM
same,TGI,[1],> 100 µM
same,GI50,[2],28.3 µM
same,TGI,[2],> 100 µM
same,GI50,[3],57.1 µM
same,TGI,[3],> 100 µM
same,GI50,[4],> 100 µM
same,TGI,[4],> 100 µM
same,GI50,[5],31.5 µM
same,TGI,[5],> 100 µM
same,GI50,[6],> 100 µM
same,TGI,[6],> 100 µM
same,GI50,[7],> 100 µM
same,TGI,[7],> 100 µM
same,GI50,[8],> 100 µM
same,TGI,[8],> 100 µM
same,GI50,[9],> 100 µM
same,TGI,[9],> 100 µM
same,GI50,[10],36.2 µM
same,TGI,[10],> 100 µM
same,GI50,[11],> 70.2 µM
same,TGI,[11],> 100 µM
same,GI50,[12],61.1 µM
same,TGI,[12],> 100 µM
same,GI50,[13],> 100 µM
same,TGI,[13],> 100 µM
same,GI50,[14],18.6 µM
same,TGI,[14],> 100 µM
same,GI50,[15],> 100 µM
same,TGI,[15],> 100 µM
same,GI50,[16],1.77 µM
same,TGI,[16],25 µM
same,GI50,[17],> 100 µM
same,TGI,[17],> 100 µM
same,GI50,[18],36.9 µM
same,TGI,[18],> 100 µM
same,GI50,[19],> 100 µM
same,TGI,[19],> 100 µM
same,GI50,[57],> 100 µM
same,TGI,[57],> 100 µM
same,GI50,[20],49.4 µM
same,TGI,[20],> 100 µM
same,GI50,[21],12.4 µM
same,TGI,[21],> 91.1 µM
same,GI50,[22],> 100 µM
same,TGI,[22],> 100 µM
same,GI50,[24],> 100 µM
same,TGI,[24],> 100 µM
same,GI50,[25],30.5 µM
same,TGI,[25],> 100 µM
same,GI50,[26],> 100 µM
same,TGI,[26],> 100 µM
same,GI50,[27],> 100 µM
same,TGI,[27],> 100 µM
same,GI50,[28],68.1 µM
same,TGI,[28],> 100 µM
same,GI50,[29],> 84.4 µM
same,TGI,[29],> 100 µM
same,GI50,[30],46.3 µM
same,TGI,[30],> 100 µM
same,GI50,[31],> 90.7 µM
same,TGI,[31],> 100 µM
same,GI50,[32],68 µM
same,TGI,[32],> 100 µM
same,GI50,[33],> 100 µM
same,TGI,[33],> 100 µM
same,GI50,[34],> 39.1 µM
same,TGI,[34],> 100 µM
same,GI50,[35],> 100 µM
same,TGI,[35],> 100 µM
same,GI50,[58],49.9 µM
same,TGI,[58],> 100 µM
same,GI50,[36],> 100 µM
same,TGI,[36],> 100 µM
same,GI50,[37],26.9 µM
same,TGI,[37],> 100 µM
same,GI50,[38],54.8 µM
same,TGI,[38],> 100 µM
same,GI50,[39],> 100 µM
same,TGI,[39],> 100 µM
same,GI50,[40],> 100 µM
same,TGI,[40],> 100 µM
same,GI50,[41],> 100 µM
same,TGI,[41],> 100 µM
same,GI50,[42],98.8 µM
same,TGI,[42],> 100 µM
same,GI50,[43],> 100 µM
same,TGI,[43],> 100 µM
same,GI50,[44],26 µM
same,TGI,[44],> 100 µM
same,GI50,[45],> 100 µM
same,TGI,[45],> 100 µM
same,GI50,[46],> 72.3 µM
same,TGI,[46],> 100 µM
same,GI50,[47],> 100 µM
same,TGI,[47],> 100 µM
same,GI50,[48],> 100 µM
same,TGI,[48],> 100 µM
same,GI50,[49],> 100 µM
same,TGI,[49],> 100 µM
same,GI50,[50],20.3 µM
same,TGI,[50],> 85 µM
same,GI50,[51],> 100 µM
same,TGI,[51],> 100 µM
same,GI50,[52],> 100 µM
same,TGI,[52],> 100 µM
same,GI50,[53],80.4 µM
same,TGI,[53],> 100 µM
same,GI50,[54],> 100 µM
same,TGI,[54],> 100 µM
same,GI50,[55],26.9 µM
same,TGI,[55],> 100 µM
same,GI50,[56],68.1 µM
same,TGI,[56],> 100 µM
